A short description of series [1]: Pharmacokinetics in mice after single s.c. or oral dose. The class given is in vivo, female CD1 mice. Particulars: for AUC / Cmax / half-life: female, CD1, mouse, single dose, plasma.
Experimental: The pharmacokinetics of compounds were monitored after single dose administration into female CD1 mice (7–9 weeks of age) via s.c. injection or oral gavage, as described.[39] For s.c. injection, each compound was dissolved in DMSO and then mixed with corn oil for a total injection volume of 100 μL (10% DSMO + 90% corn oil) per mouse. For oral gavage, compounds were administered in a 200 µL formulation of 9/0.5/0.5/90 parts of PEG400/Tween80/Povidone/0.5% Carboxymethylcellulose in DI water. […] Compounds were quantified by LC-MS/MS at the University of Illinois Metabolomics Core Facility. The data were fitted to a non-compartment model.
A further series has as its target T1, FOXM1 (Homo sapiens, UniProt Q08050).
T1 sequence (Q08050 1-763): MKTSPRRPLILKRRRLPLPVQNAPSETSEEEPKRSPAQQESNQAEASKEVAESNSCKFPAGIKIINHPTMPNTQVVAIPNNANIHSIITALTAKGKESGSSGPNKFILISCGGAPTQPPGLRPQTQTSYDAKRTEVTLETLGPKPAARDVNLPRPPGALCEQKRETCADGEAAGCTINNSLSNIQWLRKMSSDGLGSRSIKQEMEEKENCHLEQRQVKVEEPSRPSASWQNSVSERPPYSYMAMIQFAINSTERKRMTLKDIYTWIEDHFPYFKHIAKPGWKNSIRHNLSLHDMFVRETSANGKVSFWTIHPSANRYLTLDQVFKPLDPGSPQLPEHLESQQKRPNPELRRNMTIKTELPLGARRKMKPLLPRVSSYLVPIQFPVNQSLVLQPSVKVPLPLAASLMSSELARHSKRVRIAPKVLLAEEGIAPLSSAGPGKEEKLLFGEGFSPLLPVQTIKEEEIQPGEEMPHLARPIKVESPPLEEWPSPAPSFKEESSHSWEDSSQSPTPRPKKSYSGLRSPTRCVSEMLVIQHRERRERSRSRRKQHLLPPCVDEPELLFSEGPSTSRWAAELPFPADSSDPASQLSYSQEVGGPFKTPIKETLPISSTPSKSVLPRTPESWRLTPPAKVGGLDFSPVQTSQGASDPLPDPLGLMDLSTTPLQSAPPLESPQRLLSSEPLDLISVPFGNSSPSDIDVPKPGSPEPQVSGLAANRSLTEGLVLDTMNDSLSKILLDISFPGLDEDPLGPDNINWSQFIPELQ
Put plainly: tr-FRET competitive binding assay with Fl-NB-72 probe. Set-up: we attached a terbium donor to purified, full length FOXM1 through a streptavidin-biotin linker. Particulars: calculated from IC50 values; Supplementary Table 1; read-out: Ki, affinity for binding to FOXM1 protein. As for the experimental part: Competitive binding assays of compound binding to FOXM1 by tr-FRET were done in FRET buffer (20 mM Tris, pH 7.5, 50 mM NaCl, 0.01% NP-40 detergent, 10% glycerol) with 0.3 mg/ml ovalbumin and 0.1 mM butylated hydroxy-anisole added fresh daily. Solutions of the protein, fluorescent probe and compound dilutions were prepared at 3× concentrations, the final dilution taking place as they were mixed together in equal portions on the microtiter plate.
Final concentrations were 10^−5 M to 10^−9 M, with the last point being buffer only, no compound. Fluorescein-NB-72 (Fl-NB- 72) was prepared at 1 mM in DMF and stored at −20 °C. It was diluted into FRET buffer to give 100 nM in the assay. Incubations were done in duplicate on black Molecular Devices 96-well microtiter plates. 5 μl of Fl-NB-72 and 5 μl of the compound dilutions, were mixed together on the plate. To this was added 5 µl biotin-FoxM1 and incubated in the dark at room temperature, for 1 h. […] To correct for background signals, biotin-FOXM1 was omitted, and diffusion-enhanced FRET incubations were done in duplicate on black Molecular Devices 96-well microtiter plates. Five microliter of Fl-NB-72 and 5 μl of the compound solutions were mixed together and then 5 µl of FRET buffer plus SaTb was added, mixed and incubated in the dark at room temperature, for 1 h. The tr-FRET signals measured as above were subtracted as a background from the first incubations that contained biotin-FOXM1. Graphs were prepared using Graph Pad/Prism 4.

Series [2] has as its system DT22 cells and MCF7 cells. Put plainly: Cell proliferation in DT22 and MCF7 cells. Format: cell-based, human. As to conditions: 3 days. As for the experimental part: WST-1 assay (Roche, Basel, Switzerland) was used to quantify cell viability as described.[38] […] All assays were performed in triplicate and analyzed using Graph Pad Prism 8.0.
Series [3] concerns DT22 breast tumor xenografts. Put plainly: DT22 human breast tumor xenograft growth in NSG mice. Format: in vivo. Particulars: for tumor growth in vivo: low doses (2–20 mg/kg) s.c. daily or every other day; for animal body weight / growth of tumor xenografts: low doses s.c.: NB-115 2 or 6 mg/kg daily, NB-63 20 mg/kg daily then 10 mg/kg every other day from day 20; for tumor growth: DT22 tumors, NSG mice, s.c., 20 mg/kg every other day for 10 days then 10 mg/kg every other day. As for the experimental part: For examination of the effects of compounds on breast tumor growth suppression, intact female NOD/SCID-gamma (NSG) mice were used as detailed previously.[39] DT-22 breast cancer cells (1 × 10^6 cells/mouse) were injected s.c. into the right axial mammary gland. Mice received s.c. injection or oral gavage daily or every second or third day as indicated, with vehicle or treatment compound, and tumor volume (length × width^2/2) was monitored over time.

For series [4], the system named is FOXM1 target gene expression in MCF7 cells. Put plainly: FOXM1 target gene expression by qRT-PCR. Format: cell-based, human. Particulars: MCF7, 24 h, compound at its IC50 for proliferation. As for the experimental part: Total RNA was isolated using TRIzol (Invitrogen) and reverse transcribed using […] reverse transcriptase (New England BioLabs). Real-time PCR was performed using SYBRgreen PCR Master Mix (Quantabio) as described.[15] Relative mRNA levels of genes were normalized to the housekeeping gene 36B4, and fold-change calculated relative to the vehicle treated samples. Results are the average ± SD from at least two independent experiments carried out in triplicate. Primer sequences for the genes studied were obtained from the Harvard Primer Bank. Sequences are available on their website.

For series [5], the system named is tamoxifen-resistant MCF7 breast cancer cells. Briefly: Proliferation of tamoxifen-resistant MCF7 cells. Format: cell-based, human. As to conditions: 6 days, cell numbers. As for the experimental part:
resistant MCF7 cells. Cells were treated with NB-73 or trans-hydroxytamoxifen (OH-
Tam) for 6 days and cell numbers were monitored. Values are mean ± SD of three
(1 picture or pasted object on this page, not shown here)

Consider `CCN(CC)CCCCCCOc1ccc(C(c2ccc(OCCCCCCN(CC)CC)cc2)=C2[C@H]3C[C@@H]4C[C@@H](C[C@H]2C4)C3)cc1` [NB-51], for which, in series [1] (oral, 40 mg/kg), the AUC was 1.81 µM·h, the highest level (Cmax) was 110 nM and the half-life was 1210 min. For the same molecule, in series [1] (sc, 20 mg/kg), the AUC worked out at 4.73 µM·h, the Cmax is 180 nM and the half-life is 3710 min. Besides, the Ki on FOXM1 was 130 nM.
As for `C[N+]1(CCCCCCOc2ccc(C(c3ccc(Cl)cc3)=C3C4C[C@H]5C[C@@H](C4)C[C@H]3C5)cc2)CCCC1` [NB-63], the “relative potency in suppressing cell proliferation” value in series [2] is listed as “potencies very similar to those of their parent amine compounds”. In addition, in series [3], the “tumor growth in vivo” value is listed as “greatly suppress tumor growth”, the animal body weight entry is “little impact on animal body weight” and the “growth of tumor xenografts” value is on record as “effective in suppressing the growth of tumor xenografts”. Moreover, the “blood levels of compound” value in series [1] (after oral administration) is on record as “only very low levels”. The “blood levels of compound” value in series [1] (after s.c. injection) is on record as “very high blood levels”. In series [1] (oral, 40 mg/kg), this molecule gave an AUC of 1.67 µM·h, a Cmax of 400 nM and a half-life of 348 min. Also, in series [1] (sc, 40 mg/kg), the AUC worked out at 158 µM·h, the highest level (Cmax) was 5010 nM and the half-life was 1890 min.
As to `c1cc(C(=C2C3CC4CC(C3)CC2C4)c2ccc(OCCCCCCN3CCCC3)cc2)ccc1OCCCCCCN1CCCC1` [NB-65], in series [1] (oral, 60 mg/kg), the AUC came to 3.23 µM·h and the Cmax came out at 80 nM. For the same molecule, in series [1] (sc, 60 mg/kg), the AUC is 14.8 µM·h and the Cmax amounted to 580 nM. The Ki at FOXM1 is 190 nM.
Take `C[N+]1(CCCCCCOc2ccc(C(=C3C4CC5CC(C4)CC3C5)c3ccc(OCCCCCC[N+]4(C)CCCC4)cc3)cc2)CCCC1` [NB-68]: in series [2], the “relative potency in suppressing cell proliferation” value is on record as “potencies very similar to those of their parent amine compounds”. For the same molecule, in series [3], the tumor growth result is “greatly suppress tumor growth” and the “tumor growth in vivo” value is listed as “greatly suppress tumor growth”. For the same molecule, in series [1] (after oral administration), the “blood levels of compound” value is reported as “only very low levels”. Moreover, in series [1] (after s.c. injection), the “blood levels of compound” value is listed as “very high blood levels”. Also, in series [1] (oral, 60 mg/kg), the AUC turned out to be 0.29 µM·h, the Cmax worked out at 71 nM and the half-life is 372 min. Further, in series [1] (sc, 60 mg/kg), the AUC was found to be 127 µM·h, the concentration peaked (Cmax) at 7120 nM and the half-life was 1420 min. Moreover, on FOXM1, the Ki is 51 nM.
In series [1] (oral, 60 mg/kg), `c1cc(C(c2ccc(OCCCCCCN3CCCCC3)cc2)=C2[C@H]3C[C@@H]4C[C@@H](C[C@H]2C4)C3)ccc1OCCCCCCN1CCCCC1` [NB-70] showed an AUC of 8.32 µM·h, a Cmax of 220 nM and a half-life of 3070 min. In addition, in series [1] (sc, 60 mg/kg), the AUC came out at 10.2 µM·h, the highest concentration (Cmax) was 270 nM and the half-life is 13300 min.
As to `C[N+]1(CCCCCCOc2ccc(C(=C3C4CC5CC(C4)CC3C5)c3ccc(OCCCCCC[N+]4(C)CCCCC4)cc3)cc2)CCCCC1` [NB-71], in series [3], the tumor growth result is recorded as “greatly suppress tumor growth” and the “tumor growth in vivo” value is “greatly suppress tumor growth”. For the same molecule, the “blood levels of compound” value in series [1] (after oral administration) is recorded as “only very low levels”. Also, in series [1] (after s.c. injection), the “blood levels of compound” value is “very high blood levels”. Also, in series [1] (oral, 60 mg/kg), the AUC came to 0.08 µM·h and the peak level (Cmax) was 30 nM. Besides, in series [1] (sc, 60 mg/kg), the AUC came to 198 µM·h, the concentration peaked (Cmax) at 9520 nM and the half-life was 1990 min.
In series [1] (oral, 60 mg/kg), `c1cc(C(=C2C3CC4CC(C3)CC2C4)c2ccc(OCCCCCCN3CCCCCC3)cc2)ccc1OCCCCCCN1CCCCCC1` [NB-72] gave an AUC of 11.3 µM·h, a maximum concentration (Cmax) of 320 nM and a half-life of 3640 min. In series [1] (sc, 60 mg/kg), this molecule showed an AUC of 15.9 µM·h, a Cmax of 370 nM and a half-life of 18100 min.
Turning to `CC[N+](C)(CC)CCCCCCOc1ccc(C(=C2C3CC4CC(C3)CC2C4)c2ccc(OCCCCCC[N+](C)(CC)CC)cc2)cc1` [NB-115], in series [3], the “tumor growth in vivo” value is “greatly suppress tumor growth”, the animal body weight entry was “little impact on animal body weight” and the “growth of tumor xenografts” value was “effective in suppressing the growth of tumor xenografts”. In series [4], the “expression of ATF3, a gene suppressed by FOXM1” value was “increased expression of ATF3” and the “expression of FOXM1 stimulated target genes (FOXM1C, AURKB, CCNB1, PLK1)” value is listed as “significantly reduced the expression”. The Cmax in series [1] (oral, 40 mg/kg) worked out at 100 nM. In addition, in series [1] (sc, 40 mg/kg), the AUC came to 746 µM·h, the Cmax stood at 34700 nM and the half-life is 2320 min.
On to `CC/C(=C(\c1ccc(O)cc1)c1ccc(OCCN(C)C)cc1)c1ccccc1` [trans-hydroxytamoxifen, reference compound], for which the “proliferation of tamoxifen-resistant MCF7 cells” value in series [5] is “weakly stimulated”.

Values taken from paper PMC6884575, “Suppression of FOXM1 activities and breast cancer growth in vitro and in vivo by a new class of compounds” (NPJ Breast Cancer, 2019).
